Among the data in patent US11214556B1, “Method of treating colorectal cancer” (King Abdulaziz University, priority 2019, dated 2022) are IC50 values, retold here.

Common to all, as to assay type: cell-based, human
One experiment relates to HCT-116 cells. Kind of experiment: SRB cytotoxicity assay, HCT-116. Particulars: SRB assay, 72 h exposure, ± SEM. The protocol: Compounds in this study were tested against colorectal cancer cell line HCT-116, using sulforhodamine-B (SRB) assay. See Skehan, P.; Storeng, R.; Scudiero, D.; Monks, A.; McMahon, J.; Vistica, D.; Warren, J. T.; Bokesch, H.; Kenney, S.; Boyd, M. R., New colorimetric cytotoxicity assay for anticancer-drug screening. J Natl Cancer Inst 1990, 82 (13), 1107-12, incorporated herein by reference in its entirety. […] However, it was clear that compounds bearing hydrophobic aliphatic groups such as MOS-1505 and MOS-1512 are clearly favored in providing anticancer activities. […] The N-aryl substituents were less advantageous in both potency and solubility.
(§1) Different cell lines were originally purchased from American type culture collection (ATCC, Wesel, Germany) and grown in the tissue culture lab of the Egyptian company for production of vaccines, sera and drugs (Vacsera, Giza, Egypt). The cells were transferred to our laboratory and maintained in the appropriate media as following. HCT-116, CACO-2, and HT-29 (human colon cancer cell lines) were maintained in Roswell Park Memorial Institute medium (RPMI1640) (Invitrogen, Carlsbad, Calif.). The mouse skin fibroblasts (C-166) and Baby Hamster Kidney fibroblasts (BHK) were grown in Dulbecco Modified Eagle's medium (DMEM). Both media were supplemented with 1% of […] of streptomycin, 100 units/mL of penicillin and 10% of heat-inactivated fetal bovine serum (Invitrogen, Carlsbad, Calif.) in a humidified, 5% (v/v) CO2 atmosphere at 37° C.
(§2) The sulforhodamine B (SRB) assays were performed according to Skehan, P.; Storeng, R.; Scudiero, D.; Monks, A.; McMahon, J.; Vistica, D.; Warren, J. T.; Bokesch, H.; Kenney, S.; Boyd, M. R., New colorimetric cytotoxicity assay for anticancer-drug screening. J Natl Cancer Inst 1990, 82 (13), 1107-12, incorporated herein by reference in its entirety. Briefly, exponentially growing cells were trypsinized, counted and seeded at the appropriate densities (5000 cells/100 μL/well) into 96-well microtiter plates. Cells were incubated in a humidified atmosphere at 37° C. for 24 h. Then, the cells were exposed to different compounds at the desired concentrations, (0.01, 0.1, 1, 10, and 100 μM) or to 1% dimethyl sulfoxide (DMSO) for 72 h. At the end of the treatment period, the media were removed, and the cells were fixed with 10% trichloroacetic acid at 4° C. for 1 hr. Following, the cells were washed with tap water four times and incubated with SRB 0.4% for 30 min. Excess dye was removed by washing repeatedly with 1% (vol/vol) acetic acid. The protein-bound dye was dissolved in 10 mM Tris base solution for (optical density) OD determination at 510 nm using a SpectraMax plus Microplate Reader (Molecular Devices, CA). Cell viability was expressed relative to the untreated control cells.
A general note: In SRB staining, fixed cells bind dye roughly in proportion to their protein.

For a further experiment, the system named is CACO-2 cells. Description: SRB cytotoxicity assay, CACO-2. As to conditions: ± SEM.
From the text: (§3) Based on the favorable pharmacologic and physicochemical properties of MOS-1512, it was selected as a new lead for the second subset of compounds (MOS-1812 to MOS-5112). The compounds in this series contained variable groups at R^1 and R^2 that were all tested against the three cancer cell lines (HCT-116, Caco-2 and HT-29).
as §1, §2

The subject of another experiment is HT-29 cells. Description: SRB cytotoxicity assay, HT-29. As to conditions: 72 h exposure, ± SEM.
From the text: as §3, §1, §2

[1] abbreviates: Homo sapiens, Caco-2, 72 h exposure.

In general, IC50 refers to the concentration at which inhibition is half-maximal. Regarding `NC(=O)/C(=C/c1ccccc1)NC(=O)/C=C/c1ccccc1` [Compound 1508, N—[(Z)-3-amino-3-oxo-1-phenylprop-1-en-2-yl]-(E)-cinnamamide], the IC50 in the experiment on HCT-116 cells (Homo sapiens, HCT-116) was > 100 µM.
As to `CN1CCN(NC(=O)/C(=C/c2ccccc2)NC(=O)/C=C/c2ccccc2)CC1` [Compound 1511, (Z)-2-[(E)-cinnamamido]-N-(4-methyl-1-piperazinyl)-3-phenyl-acrylamide], the IC50 in the experiment on HCT-116 cells (Homo sapiens, HCT-116) is > 100 µM.
Still for that read-out and setting: the same measure for `N#Cc1cccc(NC(=O)/C(=C/c2ccccc2)NC(=O)/C=C/c2ccccc2)c1` [Compound 1513, (Z)-2-[(E)-cinnamamido]-N-(3-cyanophenyl)-3-phenyl-acrylamide]: > 100 µM; for `O=C(/C=C/c1ccccc1)N/C(=C\c1ccccc1)C(=O)Nc1ccc(F)cc1` [Compound 1528, (Z)-2-[(E)-cinnamamido]-N-(4-fluorophenyl)-3-phenylacrylamide]: 91.9 ± 4.4 µM.
The same measure, in the same setting: the same measure for `O=C(/C=C/c1ccccc1)N/C(=C\c1ccccc1)C(=O)NCc1ccco1` [Compound 1530, (Z)-2-[(E)-cinnamamido]-N-(2-furylmethyl)-3-phenyl-acrylamide]: > 100 µM; for `O=C(/C=C/c1ccccc1)N/C(=C\c1ccccc1)C(=O)NCCN1CCOCC1` [Compound 1531, (Z)-2-[(E)-cinnamamido]-N-(2-morpholinoethyl)-3-phenyl-acrylamide]: > 100 µM.
Still for that read-out and setting: the same measure for `O=C(C=Cc1ccccc1)N/C(=C\c1ccccc1)C(=O)N1CCOCC1` [Compound 1536, N—[(Z)-3-morpholino-3-oxo-1-phenylprop-1-en-2-yl]cinnamamide]: > 100 µM.
Regarding `O=C(C=Cc1ccccc1)N/C(=C\c1ccccc1)C(=O)N1CCCC1` [Compound 1555, N—[(Z)-3-(1-pyrrolidinyl)-3-oxo-1-phenylprop-1-en-2-yl]cinnamamide], the IC50 in the experiment with HCT-116 cells (Homo sapiens, HCT-116) is > 100 µM.
Same read-out and setting: the same measure for `CCCCNC(=O)/C(=C/c1ccccc1)NC(=O)/C=C/c1ccccc1` [Compound 1556, (Z)—N-(n-butyl)-2-[(E)-cinnamamido]-3-phenylacrylamide]: 67.2 ± 6.3 µM; for `CCC(C)NC(=O)/C(=C/c1ccccc1)NC(=O)C=Cc1ccccc1` (stereo not shown) [Compound 1557, (Z)—N-(sec-butyl)-2-cinnamamido-3-phenylacrylamide]: 52.4 ± 7.1 µM.
Same read-out and setting: the same measure for `CCNC(=O)/C(=C/c1ccccc1)NC(=O)/C=C/c1ccccc1` [Compound 1558, (Z)-2-[(E)-cinnamamido]-N-ethyl-3-phenylacrylamide]: > 100 µM.
Still for that read-out and setting: the same measure for `CCN(C)C(=O)/C(=C/c1ccccc1)NC(=O)C=Cc1ccccc1` [Compound 1559, (Z)-2-cinnamamido-N-ethyl-N-methyl-3-phenylacrylamide]: 28.8 ± 1 µM.
Take `CCCNC(=O)/C(=C/c1ccccc1)NC(=O)/C=C/c1ccc(Cl)cc1` [Compound 1812, (Z)-2-[(E)-3-(4-chlorophenyl)acrylamido]-3-phenyl-N-propylacrylamide]: the IC50 in the experiment with HCT-116 cells (Homo sapiens, HCT-116) was 10.3 ± 0.34 µM; with CACO-2 cells (setting [1]) it was 10.7 ± 0.5 µM; with HT-29 cells (Homo sapiens, HT-29, monolayer) it was 7.9 ± 0.43 µM.
The like results for `CCCNC(=O)/C(=C/c1ccccc1)NC(=O)/C=C/c1ccc(OC)cc1` [Compound 1912, (Z)-2-[(E)-3-(4-methoxyphenyl)acrylamido]-3-phenyl-N-propylacrylamide] were, in that order, 34.1 ± 1.8 µM, 18.5 ± 1.5 µM and 55.3 ± 3.2 µM.
Consider `CCCNC(=O)/C(=C/c1ccccc1)NC(=O)/C=C/c1ccc(C)cc1` [Compound 2012, (Z)-3-phenyl-N-propyl-2-[(E)-3-(p-tolyl)acrylamidolacry]amide], for which the figures for the IC50 with HCT-116 cells, with CACO-2 cells (72 h exposure) and in the experiment with HT-29 cells (monolayer) were 35.2 ± 0.54 µM, 12.7 ± 0.67 µM and 54.1 ± 0.42 µM, respectively.
For `CCCNC(=O)/C(=C/c1ccccc1)NC(=O)/C=C/c1cccs1` [Compound 2112, (Z)-3-phenyl-N-propyl-2-[(E)-3-(thien-2-yl)acrylamidolacry]amide], the figures for the IC50 with HCT-116 cells, with CACO-2 cells (72 h exposure) and in the experiment with HT-29 cells (monolayer) were 43 ± 1.5 µM, 27.8 ± 1.3 µM and 43.2 ± 2.3 µM, respectively.
For `CCCNC(=O)/C(=C/c1ccc(F)cc1)NC(=O)C=Cc1ccccc1` [Compound 2212, (Z)-2-cinnamamido-3-(4-fluorophenyl)-N-propylacrylamide], the IC50 in the experiment with HCT-116 cells (Homo sapiens, HCT-116) worked out at 15.2 ± 1.2 µM; in the experiment on CACO-2 cells (setting [1]), 13.2 ± 1 µM; in the experiment with HT-29 cells (Homo sapiens, HT-29, monolayer), 7.2 ± 0.31 µM.
For `CCCNC(=O)/C(=C/c1ccc(F)cc1)NC(=O)/C=C/c1ccc(OC)cc1` [Compound 2412, (Z)-3-(4-fluorophenyl)-2-[(E)-3-(4-methoxyphenyl)acrylamido]-N-propylacrylamide] the same measures were 29.3 ± 1.2 µM, 45.7 ± 1.2 µM and 86.5 ± 2.9 µM.
With `CCCNC(=O)/C(=C/c1ccc(F)cc1)NC(=O)/C=C/c1ccc(C)cc1` [Compound 2512, (Z)-3-(4-fluorophenyl)-N-propyl-2-[(E)-3-(p-tolyl)acrylamidolacry]amide], the figures for the IC50 in the experiment with HCT-116 cells, in the experiment with CACO-2 cells (72 h exposure) and in the experiment on HT-29 cells (monolayer) were 6.7 ± 0.36 µM, 5.1 ± 0.17 µM and 11.8 ± 0.18 µM, respectively.
The like results for `CCCNC(=O)/C(=C/c1ccc(F)cc1)NC(=O)/C=C/c1cccs1` [Compound 2612, (Z)-3-(4-fluorophenyl)-N-propyl-2-[(E)-3-(thien-2-yl)acrylamidolacry]amide] were, in that order, 17.3 ± 0.13 µM, 10.7 ± 0.68 µM and 7.68 ± 0.05 µM.
Turning to `CCCNC(=O)/C(=C/c1ccc(N(C)C)cc1)NC(=O)C=Cc1ccccc1` [Compound 2712, (Z)-2-cinnamamido-3-[4-(dimethylamino)phenyl]-N-propylacrylamide], the IC50 is 6.95 ± 0.46 µM in the experiment with HCT-116 cells (Homo sapiens, HCT-116); 4.24 ± 0.09 µM in the experiment on CACO-2 cells (setting [1]); 6.8 ± 0.05 µM with HT-29 cells (Homo sapiens, HT-29, monolayer).
The like results for `CCCNC(=O)/C(=C/c1ccc(N(C)C)cc1)NC(=O)/C=C/c1ccc(OC)cc1` [Compound 2912, (Z)-3-[4-(dimethylamino)phenyl]-2-[(E)-3-(4-methoxyphenyl)acrylamido]-N-propylacrylamide] were, in that order, 12.4 ± 0.25 µM, 15.3 ± 0.05 µM and 36.9 ± 0.25 µM.
For `CCCNC(=O)/C(=C/c1ccc(N(C)C)cc1)NC(=O)/C=C/c1ccc(C)cc1` [Compound 3012, (Z)-3-[4-(dimethylamino)phenyl]-N-propyl-2-[(E)-3-(p-tolyl)acrylamidolacry]amide], the IC50 with HCT-116 cells is 22.1 ± 0.1 µM; with CACO-2 cells (72 h exposure), 29.4 ± 0.08 µM; with HT-29 cells (monolayer), 39.6 ± 0.22 µM.
`CCCNC(=O)/C(=C/c1ccc(N(C)C)cc1)NC(=O)/C=C/c1cccs1` [Compound 3112, (Z)-3-[4-(dimethylamino)phenyl]-N-propyl-2-[(E)-3-(thien-2-yl)acrylamidolacry]amide]: the IC50 came to 11.6 ± 0.39 µM in the experiment on HCT-116 cells, 27.7 ± 3.7 µM with CACO-2 cells (72 h exposure) and 66.5 ± 0.1 µM in the experiment on HT-29 cells (monolayer).
`CCCNC(=O)/C(=C/c1ccc(O)c(OC)c1)NC(=O)C=Cc1ccccc1` [Compound 3212, (Z)-2-cinnamamido-3-(4-hydroxy-3-methoxyphenyl)-N-propylacrylamide]: the IC50 in the experiment on HCT-116 cells (Homo sapiens, HCT-116) is > 100 µM; with CACO-2 cells (setting [1]) it was 6.32 ± 0.02 µM; with HT-29 cells (Homo sapiens, HT-29, monolayer), 9.14 ± 0.23 µM.
For `CCCNC(=O)/C(=C/c1ccc(O)c(OC)c1)NC(=O)/C=C/c1ccc(Cl)cc1` [Compound 3312, (Z)-2-[(E)-3-(4-chlorophenyl)acrylamido]-3-(4-hydroxy-3-methoxyphenyl)-N-propylacrylamide] the same measures were 37.8 ± 1.8 µM, 6.1 ± 0.44 µM and 5.4 ± 0.34 µM.
For `CCCNC(=O)/C(=C/c1ccc(O)c(OC)c1)NC(=O)/C=C/c1ccc(OC)cc1` [Compound 3412, (Z)-3-(4-hydroxy-3-methoxyphenyl)-2-[(E)-3-(4-methoxyphenyl)acrylamido]-N-propylacrylamide] the same measures were 38.4 ± 2.1 µM, 18 ± 1.2 µM and 48.6 ± 0.4 µM.
In turn, `O=C/C=C/c1ccccc1` [tCA, trans-cinnamaldehyde, reference compound] returned an IC50 in the experiment with HCT-116 cells (Homo sapiens, HCT-116) of 12.4 ± 1.2 µM.
